From patent US20230265151A1, “GIP/GLP1 CO-AGONIST COMPOUNDS” (priority 2020, published 2023)
Like-named read-outs stand apart in the source and are kept apart here.

Key:
Type in all cases: cell-based
hGIPR = target: T1, hGIPR (Homo sapiens, UniProt P48546); test: Functional cAMP formation (HTRF) in HEK-293 clonal cells expressing hGIPR, 0.1% bovine casein, without or with 1.0% human serum albumin; settings: for Emax: percent of maximal response to GIP(1-42)NH2; for EC50: hGIPR EC50, nM (SEM, n), 37° C., geometric mean
T1 construct: expressed in transfected cells
T1 sequence (P48546 22-466): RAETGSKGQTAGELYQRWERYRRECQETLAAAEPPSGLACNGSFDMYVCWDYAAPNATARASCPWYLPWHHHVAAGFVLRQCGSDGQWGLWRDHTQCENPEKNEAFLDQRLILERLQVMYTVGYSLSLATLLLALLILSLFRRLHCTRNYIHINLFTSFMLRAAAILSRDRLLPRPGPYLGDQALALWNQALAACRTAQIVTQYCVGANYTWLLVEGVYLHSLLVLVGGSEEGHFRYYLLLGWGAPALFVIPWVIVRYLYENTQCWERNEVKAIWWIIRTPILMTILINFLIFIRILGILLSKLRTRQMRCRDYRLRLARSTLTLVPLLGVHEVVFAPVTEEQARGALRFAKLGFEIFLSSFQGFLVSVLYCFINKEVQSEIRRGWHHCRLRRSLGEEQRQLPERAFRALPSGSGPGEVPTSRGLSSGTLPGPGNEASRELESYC
In short: (§1)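 Cells were stimulated with peptide for 30 min at 37° C, then intracellular cAMP was measured by competitive HTRF (665/620 nm ratio) and converted to nM using a cAMP standard curve. Relative EC50 and Emax came from four-parameter logistic fits of percent maximal response against peptide concentration.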

hGCGR = target: T2, hGCGR (Homo sapiens, UniProt P47871); test: Functional cAMP formation (HTRF) in HEK-293 clonal cells expressing hGCGR, 0.1% bovine casein, without or with 1.0% human serum albumin; settings: hGCGR EC50, nM (SEM, n), 37° C.
T2 construct: expressed in transfected cells
In short: as §1

hGLP-1R = hGLP-1R (Homo sapiens, UniProt P43220); test: Functional cAMP formation (HTRF) in HEK-293 clonal cells expressing hGLP-1R, 0.1% bovine casein, without or with 1.0% human serum albumin; set-up: expressed in transfected cells; settings: for EC50: hGLP-1R EC50, nM (SEM, n), cAMP, 37° C.; for Emax: HEK293, read-out: hGLP-1R Emax, % ± SEM, cAMP, 37° C., 0.1% bovine casein, percent of maximal response to GLP-1(7-36)NH2, arithmetic mean
In short: as §1

[1] = HEK293, read-out: hGIPR Emax, % ± SEM, cAMP, 37° C., 0.1% bovine casein, arithmetic mean
[2] = 0.1% bovine casein and 1.0% human serum albumin, geometric mean
[3] = cAMP, 0.1% bovine casein (no human serum albumin), geometric mean
[4] = 0.1% bovine casein (no human serum albumin), geometric mean
[5] = cAMP, 0.1% bovine casein (no human serum albumin)
[6] = HEK293, read-out: hGIPR Emax, % ± SEM, cAMP, 37° C., 0.1% bovine casein and 1.0% human serum albumin
[7] = cAMP, 0.1% bovine casein and 1.0% human serum albumin, geometric mean (SEM, n)

T2 sequence (P47871 26-477): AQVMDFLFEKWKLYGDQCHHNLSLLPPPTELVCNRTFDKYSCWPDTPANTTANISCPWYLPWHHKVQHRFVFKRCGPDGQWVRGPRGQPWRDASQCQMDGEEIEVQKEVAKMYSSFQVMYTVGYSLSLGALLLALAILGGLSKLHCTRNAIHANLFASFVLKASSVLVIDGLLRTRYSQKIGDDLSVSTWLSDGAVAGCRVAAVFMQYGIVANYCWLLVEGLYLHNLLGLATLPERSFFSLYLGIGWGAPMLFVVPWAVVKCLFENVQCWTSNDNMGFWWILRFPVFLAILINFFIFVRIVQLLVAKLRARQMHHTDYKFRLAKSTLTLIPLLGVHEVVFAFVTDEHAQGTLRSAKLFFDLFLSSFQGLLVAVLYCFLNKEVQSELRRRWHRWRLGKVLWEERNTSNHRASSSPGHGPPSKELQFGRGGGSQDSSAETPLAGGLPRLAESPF
hGLP-1R, sequence (P43220 24-463): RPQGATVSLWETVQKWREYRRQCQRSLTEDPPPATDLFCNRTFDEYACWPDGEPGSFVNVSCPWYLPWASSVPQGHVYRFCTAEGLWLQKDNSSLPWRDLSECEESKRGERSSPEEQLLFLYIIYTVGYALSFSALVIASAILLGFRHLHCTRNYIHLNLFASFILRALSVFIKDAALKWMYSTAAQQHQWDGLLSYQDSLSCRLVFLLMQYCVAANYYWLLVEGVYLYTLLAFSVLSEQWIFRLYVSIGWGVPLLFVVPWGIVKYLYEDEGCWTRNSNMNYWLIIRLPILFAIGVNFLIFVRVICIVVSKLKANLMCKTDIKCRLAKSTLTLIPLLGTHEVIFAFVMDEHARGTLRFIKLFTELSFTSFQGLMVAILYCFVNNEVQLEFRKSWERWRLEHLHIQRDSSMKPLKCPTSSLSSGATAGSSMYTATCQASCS

Structure (SMILES)	Emax (hGIPR; HEK293, read-out: hGIPR Emax, % ± SEM, 0.1% bovine casein and 1.0% human serum albumin, 37° C.)	Emax (hGIPR; [1])	EC50 (hGCGR; [2])	EC50 (hGCGR; [3])	EC50 (hGLP-1R; [4])	EC50 (hGIPR; 0.1% bovine casein and 1.0% human serum albumin)	EC50 (hGIPR; [5])	Emax (hGLP-1R)	Emax (hGIPR; [6])	EC50 (hGCGR; [7])	EC50 (hGLP-1R; 0.1% bovine casein and 1.0% human serum albumin, geometric mean (SEM, n))
CC[C@H](C)[C@H](NC(=O)[C@H](CC(C)C)NC(=O)[C@](C)(Cc1ccc(O)cc1)NC(=O)[C@@H](CCC(=O)O)NC(=O)[C@@H](NC(=O)[C@H](Cc1ccccc1)NC(=O)[C@H](CCCCNC(=O)COCCOCCNC(=O)COCCOCCNC(=O)CC[C@H](NC(=O)CCCCCCCCCOc1ccc(C(=O)O)cc1)C(=O)O)NC(=O)C(C)(C)NC(=O)[C@H](CCC(N)=O)NC(=O)[C@H](C)NC(=O)[C@H](CCCCNC(=O)COCCOCCNC(=O)COCCOCCNC(=O)CC[C@H](NC(=O)CCCCCCCCCOc1ccc(C(=O)O)cc1)C(=O)O)NC(=O)[C@H](CCCN)NC(=O)[C@H](CC(=O)O)NC(=O)[C@H](CC(C)C)NC(=O)[C@](C)(CC(C)C)NC(=O)[C@@H](NC(=O)[C@H](CO)NC(=O)[C@H](CCc1ccc(O)cc1)NC(=O)[C@H](CC(=O)O)NC(=O)[C@H](CO)NC(=O)[C@@H](NC(=O)[C@](C)(Cc1ccccc1F)NC(=O)[C@@H](NC(=O)CNC(=O)[C@H](CCC(=O)O)NC(=O)C(C)(C)NC(=O)[C@@H](N)Cc1ccc(O)cc1)[C@@H](C)O)[C@@H](C)O)[C@@H](C)CC)[C@@H](C)CC)C(=O)N[C@@H](CCC(=O)O)C(=O)NCC(=O)NCC(=O)N1CCC[C@H]1C(=O)N[C@@H](CO)C(=O)N[C@@H](CO)C(=O)NCC(=O)N[C@@H](C)C(=O)N1CCC[C@H]1C(=O)N1CCC[C@H]1C(=O)N1CCC[C@H]1C(=O)N[C@@H](CO)C(N)=O [Example 320]	84.1%	94.2%	> 9950 nM	> 9950 nM	0.246 nM						
CC[C@H](C)[C@H](NC(=O)[C@H](CCCN)NC(=O)[C@H](CC(=O)O)NC(=O)[C@H](CC(C)C)NC(=O)[C@](C)(CC(C)C)NC(=O)[C@@H](NC(=O)[C@](C)(CO)NC(=O)[C@H](Cc1ccncc1)NC(=O)[C@H](CC(=O)O)NC(=O)[C@H](CO)NC(=O)[C@@H](NC(=O)[C@](C)(Cc1ccccc1F)NC(=O)[C@@H](NC(=O)CNC(=O)[C@H](CCC(=O)O)NC(=O)C(C)(C)NC(=O)[C@@H](N)Cc1ccc(O)cc1)[C@@H](C)O)[C@@H](C)O)[C@@H](C)CC)C(=O)N[C@@H](C)C(=O)N[C@@H](CCC(N)=O)C(=O)NC(C)(C)C(=O)N[C@@H](CCC(=O)O)C(=O)N[C@@H](Cc1ccccc1)C(=O)N[C@H](C(=O)N[C@@H](CCCCNC(=O)COCCOCCNC(=O)COCCOCCNC(=O)CC[C@H](NC(=O)CCCCCCCCCOc1ccc(C(=O)O)cc1)C(=O)O)C(=O)N[C@@](C)(Cc1ccc(O)cc1)C(=O)N[C@@H](CC(C)C)C(=O)N[C@H](C(=O)N[C@@H](CCCCNC(=O)COCCOCCNC(=O)COCCOCCNC(=O)CC[C@H](NC(=O)CCCCCCCCCOc1ccc(C(=O)O)cc1)C(=O)O)C(=O)NCC(=O)NCC(=O)N1CCC[C@H]1C(=O)N[C@@H](CO)C(=O)N[C@@H](CO)C(=O)NCC(=O)N[C@@H](C)C(=O)N1CCC[C@H]1C(=O)N1CCC[C@H]1C(=O)N1CCC[C@H]1C(=O)N[C@@H](CO)C(N)=O)[C@@H](C)CC)[C@@H](C)CC [Example 306]			> 9950 nM	> 9950 nM	0.414 nM	1.12 nM	0.0227 nM	105%			
CC[C@H](C)[C@H](NC(=O)[C@H](CC(C)C)NC(=O)[C@](C)(Cc1ccc(O)cc1)NC(=O)[C@@H](CCC(=O)O)NC(=O)[C@@H](NC(=O)[C@H](Cc1ccccc1)NC(=O)[C@H](CCCCNC(=O)COCCOCCNC(=O)COCCOCCNC(=O)CCCCCCCCCOc1ccc(C(=O)O)cc1)NC(=O)C(C)(C)NC(=O)[C@H](CCC(N)=O)NC(=O)[C@H](C)NC(=O)[C@H](CCCCNC(=O)COCCOCCNC(=O)COCCOCCNC(=O)CCCCCCCCCOc1ccc(C(=O)O)cc1)NC(=O)[C@H](CCCN)NC(=O)[C@H](CC(=O)O)NC(=O)[C@H](CC(C)C)NC(=O)[C@](C)(CC(C)C)NC(=O)[C@@H](NC(=O)C(C)(C)NC(=O)[C@H](Cc1ccc(O)cc1)NC(=O)[C@H](CC(=O)O)NC(=O)[C@H](CO)NC(=O)[C@@H](NC(=O)[C@](C)(Cc1ccccc1F)NC(=O)[C@@H](NC(=O)CNC(=O)[C@H](CCC(=O)O)NC(=O)C(C)(C)NC(=O)[C@@H](N)Cc1ccc(O)cc1)[C@@H](C)O)[C@@H](C)O)[C@@H](C)CC)[C@@H](C)CC)C(=O)N[C@@H](CCC(=O)O)C(=O)NCC(=O)NCC(=O)N1CCC[C@H]1C(=O)N[C@@H](CO)C(=O)N[C@@H](CO)C(=O)NCC(=O)N[C@@H](C)C(=O)N1CCC[C@H]1C(=O)N1CCC[C@H]1C(=O)N1CCC[C@H]1C(=O)N[C@@H](CO)C(N)=O [Example 393]		94.3%		> 9950 nM	0.372 nM		0.0115 nM	96.8%	66.7%	> 9950 nM	9.18 nM
CC[C@H](C)[C@H](NC(=O)[C@H](CC(C)C)NC(=O)[C@](C)(Cc1ccc(O)cc1)NC(=O)[C@@H](CCC(=O)O)NC(=O)[C@@H](NC(=O)[C@H](Cc1ccccc1)NC(=O)[C@H](CCCCNC(=O)COCCOCCNC(=O)COCCOCCNC(=O)CC[C@H](NC(=O)CCCCCCCCCOc1ccc(C(=O)O)cc1)C(=O)O)NC(=O)C(C)(C)NC(=O)[C@H](CCC(N)=O)NC(=O)[C@H](C)NC(=O)[C@H](CCCCNC(=O)COCCOCCNC(=O)COCCOCCNC(=O)CC[C@H](NC(=O)CCCCCCCCCOc1ccc(C(=O)O)cc1)C(=O)O)NC(=O)[C@H](CCCN)NC(=O)[C@H](CC(=O)O)NC(=O)[C@H](CC(C)C)NC(=O)[C@](C)(CC(C)C)NC(=O)[C@@H](NC(=O)C(C)(C)NC(=O)[C@H](Cc1ccncc1)NC(=O)[C@H](CC(=O)O)NC(=O)[C@H](CO)NC(=O)[C@@H](NC(=O)[C@](C)(Cc1ccccc1F)NC(=O)[C@@H](NC(=O)CNC(=O)[C@H](CCC(=O)O)NC(=O)C(C)(C)NC(=O)[C@@H](N)Cc1ccc(O)cc1)[C@@H](C)O)[C@@H](C)O)[C@@H](C)CC)[C@@H](C)CC)C(=O)N[C@@H](CCCN)C(=O)NCC(=O)NCC(=O)N1CCC[C@H]1C(=O)N[C@@H](CO)C(=O)N[C@@H](CO)C(=O)NCC(=O)N[C@@H](C)C(=O)N1CCC[C@H]1C(=O)N1CCC[C@H]1C(=O)N1CCC[C@H]1C(=O)N[C@@H](CO)C(N)=O [Example 408]				> 9950 nM	0.227 nM		0.00888 nM		84.4%	> 9950 nM	
